Source: ChEMBL document CHEMBL4411300 (Eur J Med Chem, 2019)

Columns and labels:
Vero = assay: Cytotoxicity against African green monkey Vero cells assessed as reduction in cell viability after 48 to 72 hrs by resazurin dye based assay; settings: Chlorocebus sabaeus
Trypanosoma cruzi [1] = assay: Trypanocidal activity against Trypanosoma cruzi TINF/CH/1956/Tulahuen DTU 6 epimastigotes after 48 to 72 hrs by resazurin dye based assay; format: functional, organism-based
Trypanosoma cruzi [2] = assay: Trypanocidal activity against Trypanosoma cruzi IRHOD/CO/2008/SN3 DTU 1 epimastigotes after 48 to 72 hrs by resazurin dye based assay; format: functional, organism-based
Trypanosoma cruzi [3] = assay: Trypanocidal activity against Trypanosoma cruzi MHOM/Pe/2011/Arequipa DTU 5 epimastigotes after 48 to 72 hrs by resazurin dye based assay; format: functional, organism-based
Trypanosoma cruzi [4] = assay: Trypanocidal activity against Trypanosoma cruzi TINF/CH/1956/Tulahuen DTU 6 trypomastigotes derived from infected Balb/c albino mouse after 24 hrs by resazurin dye based assay; format: functional, organism-based; settings: TINF/CH/1956/Tulahuen DTU 6, 24 h
[5] = Selectivity index, ratio of IC50 for African green monkey Vero cells to IC50 for Trypanosoma cruzi IRHOD/CO/2008/SN3 DTU 1 trypomastigotes derived from infected Balb/c albino mouse; format: toxicity; settings: read-out: Ratio IC50
[6] = Selectivity index, ratio of IC50 for African green monkey Vero cells to IC50 for Trypanosoma cruzi MHOM/Pe/2011/Arequipa DTU 5 epimastigotes; format: toxicity; settings: read-out: Ratio IC50
[7] = Selectivity index, ratio of IC50 for African green monkey Vero cells to IC50 for Trypanosoma cruzi TINF/CH/1956/Tulahuen DTU 6 trypomastigotes derived from infected Balb/c albino mouse; format: toxicity; settings: read-out: Ratio IC50
[8] = Selectivity index, ratio of IC50 for African green monkey Vero cells to IC50 for Trypanosoma cruzi TINF/CH/1956/Tulahuen DTU 6 amastigotes infected in African green monkey Vero cells; format: toxicity; settings: read-out: Ratio IC50
[9] = Selectivity index, ratio of IC50 for African green monkey Vero cells to IC50 for Trypanosoma cruzi IRHOD/CO/2008/SN3 DTU 1 epimastigotes; format: toxicity; settings: read-out: Ratio IC50
Trypanosoma cruzi [10] = assay: Trypanocidal activity against Trypanosoma cruzi IRHOD/CO/2008/SN3 DTU 1 trypomastigotes derived from infected Balb/c albino mouse after 24 hrs by resazurin dye based assay; format: functional, organism-based; settings: IRHOD/CO/2008/SN3 DTU 1, 24 h
Trypanosoma cruzi [11] = assay: Trypanocidal activity against Trypanosoma cruzi TINF/CH/1956/Tulahuen DTU 6 amastigotes infected in African green monkey Vero cells after 72 hrs by Giemsa-staining based microscopic assay; format: functional, organism-based; settings: TINF/CH/1956/Tulahuen DTU 6, Vero
[12] = Selectivity index, ratio of IC50 for African green monkey Vero cells to IC50 for Trypanosoma cruzi TINF/CH/1956/Tulahuen DTU 6 epimastigotes; format: toxicity; settings: read-out: Ratio IC50
[13] = Selectivity index, ratio of IC50 for African green monkey Vero cells to IC50 for Trypanosoma cruzi IRHOD/CO/2008/SN3 DTU 1 amastigotes infected in African green monkey Vero cells; format: toxicity; settings: read-out: Ratio IC50
Trypanosoma cruzi [14] = assay: Trypanocidal activity against Trypanosoma cruzi IRHOD/CO/2008/SN3 DTU 1 amastigotes infected in African green monkey Vero cells after 72 hrs by Giemsa-staining based microscopic assay; format: functional, organism-based; settings: IRHOD/CO/2008/SN3 DTU 1, Vero
[15] = Selectivity index, ratio of IC50 for African green monkey Vero cells to IC50 for Trypanosoma cruzi MHOM/Pe/2011/Arequipa DTU 5 trypomastigotes derived from infected Balb/c albino mouse; format: toxicity; settings: read-out: Ratio IC50
[16] = Selectivity index, ratio of IC50 for African green monkey Vero cells to IC50 for Trypanosoma cruzi MHOM/Pe/2011/Arequipa DTU 5 amastigotes infected in African green monkey Vero cells; format: toxicity; settings: read-out: Ratio IC50
Trypanosoma cruzi [17] = assay: Trypanocidal activity against Trypanosoma cruzi MHOM/Pe/2011/Arequipa DTU 5 trypomastigotes derived from infected Balb/c albino mouse after 24 hrs by resazurin dye based assay; format: functional, organism-based; settings: MHOM/Pe/2011/Arequipa DTU 5, 24 h
Trypanosoma cruzi [18] = assay: Trypanocidal activity against Trypanosoma cruzi MHOM/Pe/2011/Arequipa DTU 5 amastigotes infected in African green monkey Vero cells after 72 hrs by Giemsa-staining based microscopic assay; format: functional, organism-based; settings: MHOM/Pe/2011/Arequipa DTU 5, Vero

| SMILES | IC50 (Vero) [µM] | IC50 (Trypanosoma cruzi [1]) [µM] | IC50 (Trypanosoma cruzi [2]) [µM] | IC50 (Trypanosoma cruzi [3]) [µM] | also measured |
| --- | --- | --- | --- | --- | --- |
| NCCCNCCN(CCNCCCN)CCNCCCN | 1180 | 202 | 124 | 128 |  |
| c1ccc2cc(CNCCN(CCNCc3ccc4ccccc4c3)CCNCc3ccc4[nH]ncc4c3)ccc2c1 | 22.3 | 14.7 | 15.8 | 24 |  |
| c1ccc(-c2n[nH]cc2CNCCN(CCNCc2c[nH]nc2-c2ccccc2)CCNCc2c[nH]nc2-c2ccccc2)cc1 | 678 | 88.2 | 186 | 72.4 |  |
| NCCN(CCN)CCNCc1ccc2ccccc2c1 | 202 | 13.6 | 8 | 42.5 | IC50 (Trypanosoma cruzi [4]): 19 µM; selectivity ratio [5]: 11; selectivity ratio [6]: 4.8; selectivity ratio [7]: 10.6; selectivity ratio [8]: 7.7; selectivity ratio [9]: 25.4; IC50 (Trypanosoma cruzi [10]): 18.4 µM; IC50 (Trypanosoma cruzi [11]): 26.4 µM; selectivity ratio [12]: 14.8; selectivity ratio [13]: 9.6; IC50 (Trypanosoma cruzi [14]): 21.1 µM |
| c1ccc2c(CNCCN(CCNCc3ccnc4ccccc34)CCNCc3ccnc4ccccc34)ccnc2c1 | 199 | 23.5 | 25.1 | 11.9 | selectivity ratio [6]: 16.7; selectivity ratio [15]: 13.9; selectivity ratio [16]: 9.9; selectivity ratio [9]: 7.9; selectivity ratio [12]: 8.5; IC50 (Trypanosoma cruzi [17]): 14.3 µM; IC50 (Trypanosoma cruzi [18]): 20.1 µM |
| NCCN(CCN)CCNCc1ccc2ccc3cccc4ccc1c2c34 | 33.4 | 21.9 | 71 | 22.7 |  |
| NCCN(CCN)CCNCc1c2ccccc2cc2ccccc12 | 20.5 | 54.7 | 16.2 | 29.6 |  |
| CN(C)c1cccc2c(S(=O)(=O)NCCN(CCN)CCN)cccc12 | 137 | 87.4 | 101 | 65.9 |  |
